Source: ChEMBL document CHEMBL3137667, “[Drug-induced liver injury; fourteenth updated edition of the bibliographic database of liver injuries and related drugs]” (Gastroenterol Clin Biol, 2004)

Tests used:
[1] = Times to onset, minimal and maximal, observed in the indexed observations. [column 'DELAI' in source]; conditions: human
[2] = Proposed mechanism(s) of liver damage. [column 'MEC' in source]; conditions: human
[3] = human
[4] = human; remark: listed apart in the source
[5] = Highest frequency of moderate liver toxicity observed during clinical trials, expressed as a percentage. [column '% BIOL' in source]; conditions: human
[6] = human; remark: listed apart in the source
[7] = Comments (NB not yet translated). [column 'COMMENTAIRES' in source]; conditions: human
[8] = human; remark: listed apart in the source
[9] = human; remark: listed apart in the source
[10] = Presence of at least one case with successful reintroduction. [column 'REINT' in source]; conditions: human
[11] = human; remark: listed apart in the source
[12] = human, serum
[13] = human; remark: listed apart in the source
[14] = human; remark: listed apart in the source
[15] = human, serum, 4383 h
[16] = human, serum; remark: listed apart in the source
[17] = human; remark: listed apart in the source
[18] = Highest frequency of acute liver toxicity observed during clinical trials, expressed as a percentage. [column '% AIGUE' in source]; conditions: human
[19] = human; remark: listed apart in the source
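Throughout, for Hepatotoxicity (association with vascular disease): count of indexed literature references reporting vascular liver injury in humans, e.g. peliosis hepatitis, hepatic veno-occlusive disease or Budd-Chiari syndrome.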
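Throughout, for Hepatotoxicity (benign tumour): value is a count of indexed literature references citing a benign tumour confirmed by histopathology.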
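Throughout, for Hepatotoxicity (choleostasis): human cholestatic liver injury, shown by histopathology or by peak ALT or AST elevation over alkaline phosphatase ratio below 2, value counts indexed literature reports.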
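Throughout, for Hepatotoxicity (chronic liver disease): chronic liver injury confirmed by histopathology or persistently raised serum aminotransferase activity beyond 6 months, value given as the count of indexed literature references.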
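Throughout, for Hepatotoxicity (cirrhosis): value is a count of indexed literature references reporting cirrhosis confirmed by histopathology.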
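Throughout, for Hepatotoxicity (cytolytic): human cytolytic liver injury, shown by histopathology or by a ratio above 5 of peak ALT or AST elevation to alkaline phosphatase elevation, value counts indexed references.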
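Throughout, for Hepatotoxicity (granulomatous hepatitis): value is a count of indexed literature references reporting granulomatous liver disease confirmed by histopathology.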
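Throughout, for Hepatotoxicity (malignant tumour): malignant tumour confirmed by histopathology, value gives the count of indexed literature references reporting it.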
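Throughout, for Hepatotoxicity (severe hepatitis): human clinical data: severe hepatitis, meaning potentially life-threatening liver failure or clinically observed cases, the value counts how many indexed literature references report it.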
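Throughout, for Hepatotoxicity (steatosis): steatosis confirmed by histopathology, value is the count of indexed references.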

Row | SMILES | Hepatotoxicity (time to onset) [1] | Hepatotoxicity (severe hepatitis) ([3]; Liver) | Hepatotoxicity (cirrhosis) [4] | Hepatotoxicity (steatosis) [6] | Hepatotoxicity (comment) [7] | Hepatotoxicity (malignant tumour) [8] | Hepatotoxicity (successful reintroduction) [10] | Hepatotoxicity (animal toxicity known) [11] | Hepatotoxicity (acute) [12] | Hepatotoxicity (chronic liver disease) [15] | Hepatotoxicity (moderate) [16] | Hepatotoxicity (association with vascular disease) [17] | Hepatotoxicity (benign tumour) [19] | Hepatotoxicity (mechanism) [2] | Hepatotoxicity (severe hepatitis) [3] | Hepatotoxicity (moderate) [5] | Hepatotoxicity (choleostasis) [9] | Hepatotoxicity (cytolytic) [13] | Hepatotoxicity (granulomatous hepatitis) [14] | Hepatotoxicity (acute) [18] | further results
1 | O=P1(N(CCCl)CCCl)NCCCO1 (centres undefined) [CYCLOPHOSPHAMIDE ANHYDROUS] | 2 days - 21 years | 11 | 0 | 0 | CHC HNR MVO REACTIVATION_HVB | 4 | yes | yes | 18 | 0 | 16 | 44 | 0 |  |  |  |  |  |  |  | Hepatotoxicity (mechanism) ([2]; Liver): Dose-dependant; Hepatotoxicity (moderate) ([5]; Liver): 85%; Hepatotoxicity (choleostasis) ([9]; Liver): 2; Hepatotoxicity (cytolytic) ([13]; Liver): 15; Hepatotoxicity (granulomatous hepatitis) ([14]; Liver): 0; Hepatotoxicity (acute) ([18]; Liver): 2.6%
2 | CO[C@H]1C[C@H](O[C@H]2[C@H](C)[C@@H](O[C@@H]3O[C@H](C)C[C@H](N(C)C)[C@H]3OC(C)=O)[C@@H](C)C[C@@]3(CO3)C(=O)[C@H](C)[C@@H](OC(C)=O)[C@@H](C)[C@@H](C)OC(=O)[C@@H]2C)O[C@@H](C)[C@@H]1OC(C)=O [TROLEANDOMYCIN] | 3 days - 2 weeks |  | 0 | 0 | CHOLANGITE I/PILULE/RIFAMPICINE RC/ERYTHROMYCINE | 0 | yes | yes | 27 | 0 | 15 | 0 | 0 | Allergic, Dose-dependant | 0 | 83.3% | 26 | 2 | 0 | 4% | 
3 | Cn1cnc([N+](=O)[O-])c1Sc1ncnc2nc[nH]c12 [AZATHIOPRINE] | 2 hours - 8 years | 5 | 4 | 3 | HNR REACTIVATION_HVB CHOLANGITE MVO PELIOSE | 6 | yes | yes | 61 | 3 | 40 | 27 | 18 |  |  |  |  |  |  |  | Hepatotoxicity (mechanism) ([2]; Liver): Allergic, Dose-dependant; Hepatotoxicity (moderate) ([5]; Liver): 28%; Hepatotoxicity (choleostasis) ([9]; Liver): 34; Hepatotoxicity (cytolytic) ([13]; Liver): 19; Hepatotoxicity (granulomatous hepatitis) ([14]; Liver): 2; Hepatotoxicity (acute) ([18]; Liver): 11.1%
4 | CNC(=O)OCc1cccc(COC(=O)NC)n1 [PYRICARBATE] | 2 weeks - 6 months |  | 0 | 0 | AC_ANTI-MFR/-ML | 0 | yes | A | 9 | 0 | 4 | 0 | 0 | Allergic | 3 | 10% | 4 | 8 | 0 | 0.7% | 
5 | COC(=O)Nc1nc2ccc(C(=O)c3ccccc3)cc2[nH]1 [MEBENDAZOLE] | 2 days - 2 months |  | 0 | 0 | AC_ANTI-ML I/CIMETIDINE | 0 | yes | yes | 3 | 0 | 13 | 0 | 0 | Allergic, Dose-dependant | 0 | 30% | 0 | 3 | 1 | 0% | 
6 | NC(=O)c1cnccn1 [PYRAZINAMIDE] | 2 hours - 1.2 years |  | 0 | 0 | I/OFLOXACINE AC_ANTI-N | 0 | yes | yes | 51 | 1 | 21 | 0 | 0 | Allergic, Dose-dependant | 19 | 36.4% | 8 | 28 | 1 | 31.8% | 
7 | O=c1[nH]c(=O)n([C@H]2C[C@H](O)[C@@H](CO)O2)cc1F [FLOXURIDINE] | 3 cures - 12 cures |  | 4 | 2 | CHOLECYSTITE_ACALCULEUSE CHOLANGITE/IAH #CBP | 0 | yes | yes | 9 | 0 | 25 | 3 | 0 | Dose-dependant | 3 | 100% | 7 | 2 | 0 | 60% | 
8 | CN(C)CCC=C1c2ccccc2CCc2ccccc21 [AMITRIPTYLINE] | 1 week - 10 months |  | 0 | 0 | CHOLESTASE_PROLONGEE CHOLANGITE | 0 | yes | yes | 18 | 0 | 11 | 0 | 0 | Allergic | 6 | 26% | 12 | 9 | 0 | 3% | 
9 | CCCCc1oc2ccccc2c1C(=O)c1cc(I)c(OCCN(CC)CC)c(I)c1 [AMIODARONE] | 1 day - 10 years | 14 | 17 | 4 | RC/AJMALINE #S.REYE | 0 | yes | yes | 34 | 8 | 55 | 0 | 0 | Allergic, Dose-dependant |  |  |  |  |  |  | Hepatotoxicity (moderate) ([5]; Liver): 55%; Hepatotoxicity (choleostasis) ([9]; Liver): 6; Hepatotoxicity (cytolytic) ([13]; Liver): 20; Hepatotoxicity (granulomatous hepatitis) ([14]; Liver): 2; Hepatotoxicity (acute) ([18]; Liver): 6%
10 | FC(F)OC(F)(F)C(F)Cl (centres undefined) | 2 hours - 19 days |  | 0 | 2 | RC/HALOTHANE AC_ANTI-TFA | 0 | yes | yes | 21 | 0 | 15 | 0 | 0 | Allergic, Reactive metabolite | 10 | 58% | 7 | 18 | 1 | 0.7% | 
11 | O=C(O)COc1ccc(C(=O)c2cccs2)c(Cl)c1Cl | 2 weeks - 1 year | 9 | 4 | 1 | AC_ANTI-MFR2 | 0 | yes | yes | 18 | 7 | 9 | 0 | 0 | Allergic, Reactive metabolite |  |  | 8 | 18 | 0 |  | Hepatotoxicity (moderate) ([5]; Liver): 7%; Hepatotoxicity (acute) ([18]; Liver): 0%
